Measured values taken from US20180272034A1, “USE OF CSA COMPOUNDS TO PREVENT MICROBIAL BUILD-UP OR FOULING OF MEDICAL IMPLANTS” (BRIGHAM YOUNG UNIVERSITY, priority 2017, published 2018).

Assays:
Staphylococcus aureus = details: mixed-species biofilms grown 22 hours, 20 hours of treatment
Experimental: (§1) Several CSA compounds were tested against Pseudomonas aeruginosa and Staphylococcus aureus mixed-species biofilms grown for an initial 22 hours and subjected to 20 hours of treatment.

Pseudomonas aeruginosa [1] = details: mixed-species biofilms grown 22 hours, 20 hours of treatment
Experimental: as §1

[2] = Duration of efficacy of silicone-based Foley catheter with CSA-131; details: hydrogel coating approximately 10 μm including CSA-131
Source text: A silicone-based Foley catheter was coated with a hydrogel coating of approximately 10 μm in thickness. The coating included CSA-131. The coating was initially shown to maintain efficacy for about 6-7 days. A silicone-based Foley catheter was formed using silicone mixed with an NDSA salt form of CSA-131.

Klebsiella pneumonia = test: Log10 reduction, coated PVC endotracheal tube segments and media; format: cell-based; details: CSA-131 polymer coating about 39.4 μg/cm^2 vs uncoated, 24 hours
Experimental: (§2) Segments of polyvinyl chloride (PVC) endotracheal tubes measuring 3 cm in length were placed in wells of a 6 well plate. 7 ml of inoculum were placed in each well. Testing was repeated in triplicate for each test article. The samples were placed on a rotary shaker (110 revolutions per minute) and incubated at 37±2° C. for 24 hours. At the end of 24 hours the bacteria in the inoculum were characterized via serial dilution, plating, and counting. The endotracheal tube segment was also removed and neutralized. After neutralization, the adherent biofilm biomass was removed and characterized via serial dilution, plating, and counting.
(§3) As the number of viable organisms recovered from the treated catheters is expected to be low, a membrane filtration method provides an appropriate analysis for counting recovered organisms. The remaining recovery solution was filtered through a 0.45 μm filter membrane. Filters were placed on TSA/SDA/NA/TSBA plates and incubated at 37±2° C. and counted after sufficient incubation.
(§4) The log reduction is calculated by determining the Log10 difference between uncoated devices and associated media and coated devices (using a polymer coating including CSA-131 at about 39.4 μg/cm^2) and associated media. The log reduction is calculated as follows:
(§5) Log reduction(Media)=Control Log10(CFU/ml)−Test Log10(CFU/ml)
(§6) Log10(CFU/ml)=Log10(CFU/ml+1)
(§7) Log reduction(Device)=Control Log10(CFU/device)−Test Log10(CFU/device)
(§8) Log10(CFU/device)=Log10(CFU/device+1)

Pseudomonas aeruginosa [3] = test: as above; format: cell-based; details: CSA-131 polymer coating about 39.4 μg/cm^2 vs uncoated, 24 hours
Experimental: as §2, §3, §4, §5, §6, §7, §8

[4] = tested on: Staphylococcus aureus MRSA; test: as above; format: cell-based; details: CSA-131 polymer coating about 39.4 μg/cm^2 vs uncoated, 24 hours
Experimental: as §2, §3, §4, §5, §6, §7, §8

Non-fermenters = test: Broth microdilution MIC, HABP/VABP clinical isolates; format: cell-based, A. baumannii species complex, P. aeruginosa, S. maltophilia; details: Non-fermenters (22)
Experimental: CSA-131 was tested in vitro against a set of clinical isolates representing bacterial species commonly associated with hospital-acquired bacterial pneumonia (HABP) or ventilator-associated bacterial pneumonia (VABP). Antimicrobial susceptibility testing for 74 clinical isolates was performed. Broth microdilution using frozen-form MIC panels consisted of three media types: cation-adjusted Mueller-Hinton broth (CA-HMB), CA-HMB supplemented with 2.5-5% lysed horse blood for S. pneumoniae and Haemophilus test media (HTM) for Haemophilus spp.

**Q.** Which “MBC S. aureus” value (Staphylococcus aureus) does the source give for `CCCCCCCCCCCCNCCC[C@@H](C)[C@H]1CC[C@H]2[C@@H]3[C@H](OCCCN)C[C@@H]4C[C@H](OCCCN)CC[C@]4(C)[C@H]3C[C@H](OCCCN)[C@]12C.Cl.Cl.Cl.Cl` [CSA-131] here?
**A.** 1.56 µg/mL

**Q.** What about the “MIC S. aureus” value (Staphylococcus aureus) of the same compound?
**A.** 0.78 µg/mL

**Q.** And the “MBC P. aeruginosa” value (Pseudomonas aeruginosa [1])?
**A.** 3.125 µg/mL

**Q.** What about the “MIC P. aeruginosa” value (Pseudomonas aeruginosa [1]) of the same compound?
**A.** 3.125 µg/mL

**Q.** What about the “time coating maintains efficacy” value [2] of the same compound?
**A.** 6 to 7 days

**Q.** What about the “Log10 Reduction Device” value (Klebsiella pneumonia; 06-0140-M4505) of the same compound?
**A.** 5.21

**Q.** And the “Log10 Reduction Media” value (Klebsiella pneumonia; 06-0140-M4505)?
**A.** 9.49

**Q.** And the “Log10 Reduction Total” value (Klebsiella pneumonia; 06-0140-M4505)?
**A.** 7.85

**Q.** And the “Log10 Reduction Device” value (Klebsiella pneumonia; 4352 (clinical))?
**A.** 4.91

**Q.** And the “Log10 Reduction Media” value (Klebsiella pneumonia; 4352 (clinical))?
**A.** 6.56

**Q.** And the “Log10 Reduction Total” value (Klebsiella pneumonia; 4352 (clinical))?
**A.** 7.70

**Q.** And the “Log10 Reduction Device” value (Klebsiella pneumonia; ATCC 29011)?
**A.** 3.80

**Q.** What about the “Log10 Reduction Media” value (Klebsiella pneumonia; ATCC 29011) of the same compound?
**A.** 6.76

**Q.** And the “Log10 Reduction Total” value (Klebsiella pneumonia; ATCC 29011)?
**A.** 6.82

**Q.** What about the “Log10 Reduction Device” value (Pseudomonas aeruginosa [3]; ATCC 10752 (clinical)) of the same compound?
**A.** 7.32

**Q.** What about the “Log10 Reduction Media” value (Pseudomonas aeruginosa [3]; ATCC 10752 (clinical)) of the same compound?
**A.** 9.86

**Q.** And the “Log10 Reduction Total” value (Pseudomonas aeruginosa [3]; ATCC 10752 (clinical))?
**A.** 9.58

**Q.** And the “Log10 Reduction Device” value (Pseudomonas aeruginosa [3]; ATCC 27853)?
**A.** 7.58

**Q.** What about the “Log10 Reduction Media” value (Pseudomonas aeruginosa [3]; ATCC 27853) of the same compound?
**A.** 9.15

**Q.** And the “Log10 Reduction Total” value (Pseudomonas aeruginosa [3]; ATCC 27853)?
**A.** 8.62

**Q.** And the “Log10 Reduction Device” value (Pseudomonas aeruginosa [3]; PA14 (clinical))?
**A.** 5.81

**Q.** What about the “Log10 Reduction Media” value (Pseudomonas aeruginosa [3]; PA14 (clinical)) of the same compound?
**A.** 7.24

**Q.** What about the “Log10 Reduction Total” value (Pseudomonas aeruginosa [3]; PA14 (clinical)) of the same compound?
**A.** 7.00

**Q.** And the “Log10 Reduction Device” value ([4]; 399 (clinical))?
**A.** 6.24

**Q.** And the “Log10 Reduction Media” value ([4]; 399 (clinical))?
**A.** 8.89

**Q.** What about the “Log10 Reduction Total” value ([4]; 399 (clinical)) of the same compound?
**A.** 8.23

**Q.** What about the “Log10 Reduction Device” value ([4]; 456 (clinical)) of the same compound?
**A.** 6.77

**Q.** What about the “Log10 Reduction Media” value ([4]; 456 (clinical)) of the same compound?
**A.** 9.63

**Q.** What about the “Log10 Reduction Total” value ([4]; 456 (clinical)) of the same compound?
**A.** 9.63

**Q.** And the “Log10 Reduction Device” value ([4]; U of C #18 (clinical))?
**A.** 5.92

**Q.** What about the “Log10 Reduction Media” value ([4]; U of C #18 (clinical)) of the same compound?
**A.** 9.36

**Q.** And the “Log10 Reduction Total” value ([4]; U of C #18 (clinical))?
**A.** 8.44

**Q.** And the MIC50 (Non-fermenters)?
**A.** 4 µg/mL

**Q.** What about the MIC90 (Non-fermenters) of the same compound?
**A.** 4 µg/mL

**Q.** What about the “No. of isolates at MIC 2 μg/ml” value (Non-fermenters) of the same compound?
**A.** 9

**Q.** What about the “No. of isolates at MIC 4 μg/ml” value (Non-fermenters) of the same compound?
**A.** 12

**Q.** And the “No. of isolates at MIC 8 μg/ml” value (Non-fermenters)?
**A.** 1

**Q.** And the “cumulative % inhibited at 2 μg/ml” value (Non-fermenters)?
**A.** 40.9%

**Q.** And the “cumulative % inhibited at 4 μg/ml” value (Non-fermenters)?
**A.** 95.5%

**Q.** And the “cumulative % inhibited at 8 μg/ml” value (Non-fermenters)?
**A.** 100%
